From patent publication US9808470B2, “Estrogenic components for use in the treatment of neurological disorders” (UNIVERSITE DE LIEGE, priority 2012, dated 2017)

System: intact cells in hippocampus and cortex
Experiment: Ex.8 therapeutic HIE rat model: intact cell counting
Format: in vivo
Procedure: To study the therapeutic effect of estetrol, newborn rat pups were assigned to one of the following 14 groups at postnatal day 7 (FIG. 23(B)): Sham group (n=12), Vehicle (n=15), 5 mg/kg/day E4 (n=11), 10 mg/kg/day E4 (n=11), 5 mg/kg/day E4+1.6 mg/kg/day PROG (n=11), 10 mg/kg/day E4+1.6 mg/kg/day PROG (n=11), 5 mg/kg/day E4+16 mg/kg/day PROG (n=11), 10 mg/kg/day E4+16 mg/kg/day PROG (n=13), 5 mg/kg/day E4+136 ng//kg/day E2 (n=11), 10 mg/kg/day E4+136 ng/kg/day E2 (n=11), 5 mg/kg/day E4+1.6 mg/kg/day PROG+136 ng/kg/day E2 (n=12), 10 mg/kg/day E4+1.6 mg/kg/day PROG+136 ng/kg/day E2 (n=11), 5 mg/kg/day E4+16 mg/kg/day PROG+136 ng/kg/day E2 (n=11), 10 mg/kg/day E4+16 mg/kg/day PROG+136 ng/kg/day (n=12) groups. […] After surgery, the pups were returned to their dams and allowed to recover for 1 hour. The pups were then placed in a humidified hypoxic in vivo cabinet (CoyLab). Hypoxia was produced by the inhalation of 11%-8% of oxygen balanced by nitrogen at decreased concentration of oxygen for 20 minutes, followed by inhalation of 8% oxygen and 92% nitrogen at constant concentration for 35 minutes. All the manipulations were performed at 37° C. Upon retrieval from the hypoxia chamber the rat pups were injected ip once either by vehicle (vehicle group) or by in accordance to the group assignment. The animals from the sham group went through similar procedures but proceeded neither left common carotid artery ligation and cut followed by hypoxia nor injections. Rat pups recovered with their dams until being sacrificed at postnatal day 14 (FIG. 24(B)). […]
Intact cell counting was performed on hematoxylin-eosin-stained sections of the rat pups brains at magnification 400× in 3 fields of the respective brain area. […] The sections were analyzed with the aid of a microscope (Olympus BX51, Olympus, Tokyo, Japan), an image scanner (DotSlide Digital Virtual Microscopy, Olympus, Germany) and ImageJ software (NIH, US). […]

Compound: C[C@]12CC[C@@H]3c4ccc(O)cc4CC[C@H]3[C@@H]1[C@@H](O)[C@@H](O)[C@@H]2O [E4, 1,3,5(10)-estratrien-3,15α,16α,17β-tetrol]
- number of intact cells (10 mg/kg/day E4, CA1): 57.30±5.19
- intact cell counting per visual field (10 mg/kg/day E4, DG): 150.20±9.43
- number of intact cells (10 mg/kg/day E4, cortex): 46.60±1.83
